Experimental findings from US9006442B2, “Cannabinoid receptor modulators” (Lupin Limited, priority 2011, dated 2015) are described below.

pEC50: −log10 of the molar value. Where two headings read alike, the source gives them in different places.

The assay deals with hCB2 (Homo sapiens, UniProt P34972). Briefly: cAMP determination in functional hCB2-CHO stable cells (HTRF). The format is cell-based. The protocol: In-Vitro Assay Method for Determination of cAMP in Functional hCB2—CHO Stable Cells:
Recombinant CHO-hCB2 cells (procured from Perkin Elmer Inc. USA) were propagated and maintained in Ham's F-12 complete medium containing 10% heat inactivated FBS (Sigma.UK) and 1× penstrep. For assay, 0.1×10^6 to 1.0×10^6 CHO-hCB2 cells were seeded in T-25 flask and grown to mid-log phase in culture media without antibiotics for 2-3 days. […] The test is performed in 96^1/2 area black well plates. For agonist testing, 20 μl cells/well were mixed with 20 μl of sample and 10 μl of forskolin (with final concentration of 10 μM) and incubated for 20 to 40 min at room temperature in incubator. The plate was then processed for the cAMP determination using cAMP Femto-2 HTRF kit (Cisbio, Germany) as per the manual.
The concentration of compound required to stimulate a half-maximal response (EC50) was determined using the GraphPad Prism software (version 5).
A general note: TR-FRET usually uses a lanthanide donor and a delayed reading to cut background.

Setting [1] is: CHO-hCB2 cells, cAMP, forskolin 10 μM, agonist testing, read-out: EC50 Range.

Sequence of hCB2 (P34972 whole entry): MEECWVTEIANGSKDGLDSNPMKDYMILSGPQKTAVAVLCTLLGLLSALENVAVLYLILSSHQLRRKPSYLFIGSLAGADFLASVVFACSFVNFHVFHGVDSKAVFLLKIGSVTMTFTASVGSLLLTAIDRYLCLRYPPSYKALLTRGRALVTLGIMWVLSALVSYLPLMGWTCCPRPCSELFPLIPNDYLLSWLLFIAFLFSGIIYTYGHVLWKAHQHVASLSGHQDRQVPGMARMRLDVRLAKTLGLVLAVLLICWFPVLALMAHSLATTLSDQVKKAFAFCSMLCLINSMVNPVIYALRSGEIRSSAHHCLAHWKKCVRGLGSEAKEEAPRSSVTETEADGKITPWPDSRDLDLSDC

The pEC50 is the negative decadic logarithm of the EC50, by convention in mol/L. For the compound `CCN(C)C(=O)c1ccc(Nc2cccc(Cl)c2C)c2cccc(C)c12` [compound 456, 4-((3-Chloro-2-methylphenyl)amino)-N-ethyl-N,8-dimethyl-1-naphthamide], under setting [1], the pEC50 was greater than 8.00.
For `Cc1cccc2c(Nc3cccc(F)c3)ncc(C(=O)N3CCCCC3)c12` [Example-21, (1-((3-Fluorophenyl)amino)-5-methylisoquinolin-4-yl)(piperidino)methanone], the pEC50 was greater than 8.00.
On to `CC(C)N(C)C(=O)c1cnc(Nc2cccc(F)c2C(F)(F)F)c2cccc(Cl)c12` [compound 381, 5-Chloro-1-((3-fluoro-2-(trifluoromethyl)phenyl)amino)-N-isopropyl-N-methylisoquinolin-4-carboxamide], for which the negative logarithm of the EC50 (pEC50) under setting [1] was 6.00 to 8.00.
On to `O=C(c1ccc(Nc2cccc(C(F)(F)F)c2)c2ccccc12)N1CCOCC1` [Example-201, Morpholino(4-((3-(trifluoromethyl)phenyl)amino)naphthalen-1-yl)methanone], for which the negative-log EC50 (pEC50) is greater than 8.00.
On to `Cc1cccc(Nc2ccc(C(=O)N3CCOCC3)c3c(C)cccc23)c1` [Example-150, (8-Methyl-4-(m-tolylamino)naphthalen-1-yl)(morpholino)methanone], for which the pEC50 under setting [1] was greater than 8.00.
Still for that read-out and setting: the figure for `Cc1cccc2c(Nc3ccc(F)cc3F)ncc(C(=O)N3CCCCC3)c12` [Example-29, (1-((2,4-Difluorophenyl)amino)-5-methylisoquinolin-4-yl)(piperidin-1-yl)methanone] is greater than 8.00.
With `Cc1c(Nc2ncc(C(=O)N(C)C)c3c(Cl)cccc23)cccc1C(F)(F)F` [compound 329, 5-Chloro-N,N-dimethyl-1-((2-methyl-3-(trifluoromethyl)phenyl)amino)isoquinolin-4-carboxamide], the negative-log EC50 (pEC50) was greater than 8.00.
With `Cc1cccc2c(Nc3cccc(CF)c3)ncc(C(=O)N3CCCCC3)c12` [Example-37, (1-((3-(Fluoromethyl)phenyl)amino)-5-methylisoquinolin-4-yl)(piperidin-1-yl)methanone], the pEC50 under setting [1] was greater than 8.00.
For `Cc1cccc2c(Nc3cc(F)cc(F)c3)ncc(C(=O)N3CCCCC3)c12` [Example-24, (1-((3,5-Difluorophenyl)amino)-5-methylisoquinolin-4-yl)(piperidin-1-yl)methanone], the pEC50 under setting [1] was greater than 8.00.
On to `Cc1c(F)cccc1Nc1ccc(C(=O)N2CC3CC3C2)c2c(C)cccc12` (stereo not shown) [Example-170, 3-Azabicyclo[3.1.0]hexan-3-yl(4-((3-fluoro-2-methylphenyl)amino)-8-methylnaphthalen-1-yl)methanone], for which the pEC50 under setting [1] was greater than 8.00.
Take `CCc1cccc2c(Nc3cccc(Cl)c3C)ncc(C(=O)N3CCCCC3)c12` [Example-131, (1-((3-Chloro-2-methylphenyl)amino)-5-ethylisoquinolin-4-yl)(piperidin-1-yl)methanone]: the pEC50 under setting [1] is greater than 8.00.
Same read-out and setting: next, `CCN(CC)C(=O)c1ccc(Nc2cccc(C(=O)OC)c2C)c2cccc(C)c12` [compound 411, Methyl 2-methyl-3-((5-methyl-4-(diethylcarbamoyl)naphthalen-1-yl)amino)benzoate]: greater than 8.00.
In turn, `Cc1cccc2c(Nc3ccc(F)c(Cl)c3)ncc(C(=O)N3CC4CC(C3)O4)c12` [Example-60, 6-Oxa-3-azabicyclo[3.1.1]heptan-3-yl(1-((3-chloro-4-fluorophenyl)amino)-5-methylisoquinolin-4-yl)methanone] showed a pEC50 of 6.00 to 8.00.
Consider `CCN(C)C(=O)c1cnc(Nc2cccc(C(F)(F)F)c2F)c2cccc(C)c12` [compound 292, N-Ethyl-1-((2-fluoro-3-(trifluoromethyl)phenyl)amino)-N,5-dimethyl isoquinolin-4-carboxamide], for which the pEC50 under setting [1] is greater than 8.00.
Same read-out and setting: next, `Cc1cccc2c(Nc3cc(F)cc(F)c3)ncc(C(=O)N3CCOCC3)c12` [Example-3, (1-((3,5-Difluorophenyl)amino)-5-methylisoquinolin-4-yl)(morpholino)methanone]: greater than 8.00; `CCN(C)C(=O)c1cnc(Nc2c(F)ccc(F)c2F)c2cccc(Cl)c12` [compound 355, 5-Chloro-N-ethyl-N-methyl-1-((2,3,6-trifluorophenyl)amino) isoquinolin-4-carboxamide]: 6.00 to 8.00.
For `Cc1cccc2c(Nc3cccc(F)c3F)ccc(C(=O)N3CC4CC4C3)c12` (stereo not shown) [Example-166, 3-Azabicyclo[3.1.0]hexan-3-yl(4-((2,3-difluorophenyl)amino)-8-methylnaphthalen-1-yl)methanone], under setting [1], the pEC50 was greater than 8.00.
On to `Cc1cccc2c(Nc3cccc(C(F)(F)F)c3)ncc(C(=O)N3CCCCC3)c12` [Example-23, (5-Methyl-1-(((3-trifluoromethyl)phenyl)amino)isoquinolin-4-yl)(piperidin-1-yl)methanone], for which the pEC50 is greater than 8.00.
Same read-out and setting: next, `O=C(NCC1CCOCC1)c1ccc(Nc2cccc(Cl)c2)c2ccccc12` [Example-180, 4-((3-Chlorophenyl)amino)-N-((tetrahydro-2H-pyran-4-yl)methyl)-1-naphthamide]: 6.00 to 8.00.
Take `CN(C)C(=O)c1cnc(Nc2cccc(F)c2C(F)(F)F)c2cccc(Cl)c12` [compound 333, 5-Chloro-1-((3-fluoro-2-(trifluoromethyl)phenyl)amino)-N,N-di methylisoquinolin-4-carboxamide]: the negative logarithm of the EC50 (pEC50) under setting [1] is greater than 8.00.
In the case of `Cc1ccc(Nc2ncc(C(=O)N3CCCCC3)c3c(C)cccc23)cc1Cl` [Example-92, (1-((3-Chloro-4-methylphenyl)amino)-5-methylisoquinolin-4-yl)(piperidin-1-yl)methanone], the negative logarithm of the EC50 (pEC50) is greater than 8.00.
With `CCN(CC)C(=O)c1cnc(Nc2cccc(C(F)(F)F)c2F)c2cccc(Cl)c12` [compound 328, 5-Chloro-N,N-diethyl-1-((2-fluoro-3-(trifluoromethyl)phenyl)amino) isoquinolin-4-carboxamide], the pEC50 under setting [1] is greater than 8.00.
Consider `Cc1cccc2c(Nc3ccc(F)c(C(F)(F)F)c3)ncc(C(=O)N3CCOCC3)c12` [Example-6, (1-((4-Fluoro-3-(trifluoromethyl)phenyl)amino)-5-methylisoquinolin-4-yl)(morpholino)methanone], for which the pEC50 under setting [1] was greater than 8.00.
For the compound `CN(C)C(=O)c1cnc(Nc2cccc(C(F)(F)F)c2F)c2cccc(Cl)c12` [compound 330, 5-Chloro-1-((2-fluoro-3-(trifluoromethyl)phenyl)amino)-N,N-dimethylisoquinolin-4-carboxamide], under setting [1], the pEC50 was greater than 8.00.
Regarding `Cc1cccc2c(Nc3cc(F)c(F)cc3F)ncc(C(=O)N3CCCCC3)c12` [Example-28, (1-((2,4,5-Trifluorophenyl)amino)-5-methylisoquinolin-4-yl)(piperidin-1-yl)methanone], the pEC50 under setting [1] was greater than 8.00.
Take `COC(=O)c1cccc(Nc2ccc(C(=O)N3CCOCC3)c3c(C)cccc23)c1` [compound 408, Methyl 3-((5-methyl-4-(morpholin-4-carbonyl)naphthalen-1-yl)amino) benzoate]: the pEC50 under setting [1] was greater than 8.00.
As for `Cc1c(Cl)cccc1Nc1ncc(C(=O)N(C)C)c2c(Cl)cccc12` [compound 332, 5-Chloro-1-((3-chloro-2-methylphenyl)amino)-N,N-dimethyl isoquinolin-4-carboxamide], the pEC50 was greater than 8.00.
On to `CCc1cccc2c(Nc3cccc(Cl)c3F)ncc(C(=O)N3CCCCC3)c12` [Example-128, (1-((3-Chloro-2-fluorophenyl)amino)-5-ethylisoquinolin-4-yl)(piperidin-1-yl)methanone], for which the pEC50 was greater than 8.00.
